Measurements published in publication PMC12221116, “Novel Quinazolinones Active against Multidrug‐Resistant Mycobacterium Tuberculosis: Synthesis, Antimicrobial Evaluation, and in Silico Exploration of Penicillin‐Binding Protein 1A as a Potential Target” (Chemmedchem, 2025).
≈ marks a conversion by molar mass, not a printed value. Read-outs that look alike come from different tables or passages of the source.

Experiments:
MRC-5 [1] = assay: cells; settings: Homo sapiens
M. aurum = assay: Microdilution broth resazurin assay, MIC; format: cell-based, Mycolicibacterium aurum
M. avium = assay: Microdilution broth resazurin assay, MIC; format: cell-based, Mycobacterium avium
Mtb H37Rv = assay: Microplate Alamar Blue assay, MIC; format: cell-based, Mycobacterium tuberculosis; settings: for MIC: Mycobacterium tuberculosis, H37RV
M. kansasii = assay: Microplate Alamar Blue assay, MIC; format: cell-based, Mycobacterium kansasii; settings: for MIC: Mycobacterium kansasii, read-out: Antimycobacterial Activity MIC M. kans.
Mtb H37Ra = assay: Microdilution broth resazurin assay, MIC; format: cell-based, Mycobacterium tuberculosis
HepG2 [2] = assay: cells; settings: Homo sapiens
M. smegmatis = assay: Microdilution broth resazurin assay, MIC; format: cell-based, Mycolicibacterium smegmatis
MRC-5 [3] = settings: cytotoxicity
HepG2 [4] = settings: cytotoxicity
[5] = MRC5, 24 h, read-out: IC50 for MRC-5 [24 h]
[6] = MRC5, 72 h, read-out: IC50 for MRC-5 [72 h]
[7] = Table S5 matching pairs series A and B
[8] = Microplate Alamar Blue assay, read-out: Antimycobacterial Activity MIC Mtb H37Rv
[9] = read-out: Antimycobacterial Activity MIC Mtb H37Rv, Table S5 matching pairs series A and B
[10] = Mycobacterium tuberculosis, H37RA, read-out: Antimycobacterial Activity MIC Mtb H37Ra
[11] = HepG2, 24 h, read-out: IC50 for HepG2 [24 h]
[12] = HepG2, 72 h, read-out: IC50 for HepG2 [72 h]
[13] = read-out: IC50 for MRC-5 [24 h], 24 h incubation
[14] = read-out: IC50 for HepG2 [24 h], 24 h incubation
[15] = Mycolicibacterium aurum, read-out: Antimycobacterial Activity MIC M. aurum
[16] = Mycobacterium avium, read-out: Antimycobacterial Activity MIC M. avium
[17] = Mycobacterium tuberculosis, H37RA; read-out: Antimycobacterial Activity MIC Mtb H37Ra
[18] = Mycolicibacterium smegmatis, read-out: Antimycobacterial Activity MIC M. smeg.

Row | Compound | MIC (Mtb H37Rv; [8]) | MIC (M. kansasii) | Antimycobacterial Activity MIC Mtb H37Ra (Mtb H37Ra) | Antimycobacterial Activity MIC M. aurum (M. aurum) | Antimycobacterial Activity MIC M. avium (M. avium) | Antimycobacterial Activity MIC M. smeg. (M. smegmatis) | MIC (M. aurum; [15]) | MIC (M. avium; [16]) | MIC (Mtb H37Ra; [17]) | MIC (M. smegmatis; [18]) | also measured
1 | Cc1nc2cc(Cl)ccc2c(=O)n1Cc1cccc(Cl)c1 [Compound 21] | 25 µg/mL (≈ 78.3 µM) | > 100 µg/mL | 15.625 µg/mL |  |  |  |  |  |  |  | IC50 (MRC-5 [1]; [5]): > 50 µM; IC50 (MRC-5 [1]; [6]): > 50 µM; MIC (M. aurum; Mycolicibacterium aurum; read-out: Antimycobacterial Activity MIC M. aurum): ≥ 250 µg/mL; Antimycobacterial Activity MIC M. aurum (M. aurum; [7]): ≥ 250 µg/mL; MIC (M. avium; Mycobacterium avium; read-out: Antimycobacterial Activity MIC M. avium): ≥ 250 µg/mL; Antimycobacterial Activity MIC M. avium (M. avium; [7]): ≥ 250 µg/mL; MIC (Mtb H37Rv; [9]): 25 µg/mL (≈ 78.3 µM); MIC (Mtb H37Ra; [10]): 15.6 µg/mL (≈ 49 µM); IC50 (HepG2 [2]; [11]): > 50 µM; IC50 (HepG2 [2]; [12]): > 50 µM; MIC (M. smegmatis; Mycolicibacterium smegmatis; read-out: Antimycobacterial Activity MIC M. smeg.): ≥ 250 µg/mL; Antimycobacterial Activity MIC M. smeg. (M. smegmatis; [7]): ≥ 250 µg/mL
2 | COc1cccc(Cn2c(C)nc3ccccc3c2=O)c1 [Compound 2] |  |  | 62.5 µg/mL | 125 µg/mL | 62.5 µg/mL | 250 µg/mL |  |  |  |  | IC50 (MRC-5 [3]; [13]): > 300 µM; IC50 (MRC-5 [3]; read-out: IC50 for MRC-5 [72 h], 72 h incubation): 215 ± 24 µM; Antimycobacterial Activity MIC M. aurum (M. aurum; [7]): 125 µg/mL; Antimycobacterial Activity MIC M. avium (M. avium; [7]): 62.5 µg/mL; Antimycobacterial Activity MIC Mtb H37Rv (Mtb H37Rv; Microplate Alamar Blue assay): 100 µg/mL; Antimycobacterial Activity MIC M. kans. (M. kansasii): 100 µg/mL; Antimycobacterial Activity MIC Mtb H37Ra (Mtb H37Ra; [7]): 62.5 µg/mL; Antimycobacterial Activity MIC M. smeg. (M. smegmatis; [7]): 250 µg/mL; IC50 (HepG2 [4]; [14]): 305 ± 3 µM; IC50 (HepG2 [4]; read-out: IC50 for HepG2 [72 h], 72 h incubation): 135 ± 6 µM
3 | Cc1nc2ccccc2c(=O)n1Cc1cccc(Cl)c1 [Compound 6] |  |  | 31.25 µg/mL | 62.5 µg/mL | 31.25 µg/mL | 62.5 µg/mL |  |  |  |  | IC50 (MRC-5 [3]; [13]): 551 ± 19 µM; Antimycobacterial Activity MIC M. aurum (M. aurum; [7]): 62.5 µg/mL; Antimycobacterial Activity MIC M. avium (M. avium; [7]): 31.25 µg/mL; Antimycobacterial Activity MIC Mtb H37Rv (Mtb H37Rv; Microplate Alamar Blue assay): 50 µg/mL; Antimycobacterial Activity MIC Mtb H37Rv (Mtb H37Rv; [7]): 50 µg/mL; Antimycobacterial Activity MIC M. kans. (M. kansasii): 25 µg/mL; Antimycobacterial Activity MIC M. kans. (M. kansasii; [7]): 25 µg/mL; Antimycobacterial Activity MIC Mtb H37Ra (Mtb H37Ra; [7]): 31.25 µg/mL; Antimycobacterial Activity MIC M. smeg. (M. smegmatis; [7]): 62.5 µg/mL; IC50 (HepG2 [4]; [14]): 507 ± 48 µM
4 | Cc1nc2cc(Cl)ccc2c(=O)n1/N=C/c1ccccc1[N+](=O)[O-] [Compound 26] | > 25 µg/mL | > 25 µg/mL |  |  |  |  | ≥ 62.5 µg/mL | ≥ 62.5 µg/mL | ≥ 62.5 µg/mL | ≥ 62.5 µg/mL | 
5 | Cc1nc2cc(Cl)ccc2c(=O)n1/N=C/c1ccc(F)cc1 [Compound 44] | > 25 µg/mL | > 25 µg/mL |  |  |  |  | ≥ 31.2 µg/mL | ≥ 31.2 µg/mL | ≥ 31.2 µg/mL | ≥ 31.2 µg/mL | 
6 | Cc1nc2ccccc2c(=O)n1Cc1cc(F)cc(C(F)(F)F)c1 [Compound 9] |  |  | 125 µg/mL | 62.5 µg/mL | 62.5 µg/mL | ≥500 µg/mL |  |  |  |  | Antimycobacterial Activity MIC Mtb H37Rv (Mtb H37Rv; Microplate Alamar Blue assay): >100 µg/mL; Antimycobacterial Activity MIC M. kans. (M. kansasii): >100 µg/mL
7 | Cc1nc2cc(Cl)ccc2c(=O)n1/N=C/c1cccc([N+](=O)[O-])c1 [Compound 27] | > 50 µg/mL | > 50 µg/mL |  |  |  |  | ≥ 62.5 µg/mL | ≥ 62.5 µg/mL | ≥ 62.5 µg/mL | ≥ 62.5 µg/mL | 
8 | Cc1nc2cc(Cl)ccc2c(=O)n1/N=C/c1ccc([N+](=O)[O-])cc1 [Compound 28] | > 25 µg/mL | > 25 µg/mL |  |  |  |  | ≥ 31.2 µg/mL | ≥ 31.2 µg/mL | ≥ 31.2 µg/mL | ≥ 31.2 µg/mL | 
9 | Cc1nc2cc(Cl)ccc2c(=O)n1/N=C/c1cccc(F)c1 [Compound 43] | > 25 µg/mL | > 25 µg/mL |  |  |  |  | ≥ 62.5 µg/mL | ≥ 62.5 µg/mL | ≥ 62.5 µg/mL | ≥ 62.5 µg/mL | 
10 | Cc1nc2cc(Cl)ccc2c(=O)n1/N=C/c1cccc(O)c1 [Compound 36] | > 100 µg/mL | > 100 µg/mL |  |  |  |  | ≥ 62.5 µg/mL | ≥ 62.5 µg/mL | ≥ 62.5 µg/mL | ≥ 62.5 µg/mL | 
11 | Cc1nc2cc(Cl)ccc2c(=O)n1Cc1ccc(Cl)c(Cl)c1 [Compound 24] | 50 µg/mL (≈ 141 µM) | 25 µg/mL (≈ 70.7 µM) | 15.625 µg/mL | ≥125 µg/mL | ≥125 µg/mL | ≥125 µg/mL | ≥ 125 µg/mL | ≥ 125 µg/mL |  | ≥ 125 µg/mL | IC50 (MRC-5 [1]; [5]): > 50 µM; IC50 (MRC-5 [1]; [6]): > 50 µM; MIC (Mtb H37Rv; [9]): > 100 µg/mL; Antimycobacterial Activity MIC M. kans. (M. kansasii; [7]): 25 µg/mL; MIC (Mtb H37Ra; [10]): 15.6 µg/mL (≈ 44.2 µM); IC50 (HepG2 [2]; [11]): > 50 µM; IC50 (HepG2 [2]; [12]): > 50 µM
